Consider six molecules from patent publication US6346615B1, “Chemiluminescent 1,2-dioxetanes” (Tropix, Inc., priority 1989, dated 2002).

For data set [1], the system named is alkaline phosphatase. The data set is described as follows: Quantum yield determination of dioxetane chemiluminescence after alkaline phosphatase addition. In kind it is biochemical. The following applies: 0.1M DEA, pH, 25° C., dioxetane concentration 3.7 × 10^−7M to 6 × 10^−6M. The text has this:
Various dioxetanes within the scope of this invention have been prepared and tested for essential properties, such as quantum yield (performed by an independent laboratory according to the procedure listed below), T½ and the emission wavelength maxima. These dioxetanes are identified by number, and in the tables following after the number, the identity of the substituent on the adamantyl ring, if any followed by the identity of the Z substituent is given. In the compounds tested, X is phosphate. Values for quantum yield and T½ are obtained both for the dioxetane along in 0.1 molar DEA, and in the presence of an enhancement agent, Sapphire II.
[…] […] […] The tube was then placed in MGM Optocomp® I luminometer and the light signal was measured at 1 sec integration times. […] The total counts for the dioxetane were determined from the intensity data. Total counts observed for a given concentration of dioxetane is the product of Photon Detection Efficiency (PDE) of the luminometer, the quantum yield of dioxetane and the number of molecules capable of emitting light (concentration of dephosphorylated dioxetanes). PDE for the MGM Optocomp® I luminometer was determined to be 2.56×10^−3, measured with a Biolink® absolute standard and utilizing the known spectral response of the luminometer's PMT and the known emission spectrum of the dioxetanes. The quantum yield is calculated by dividing the total counts measured by the PDE and the concentration of the dioxetane.

Data set [2] concerns alkaline phosphatase. As to the kind of experiment: Chemiluminescence emission wavelength maximum (Spex Fluorolog). In kind it is biochemical. The conditions noted are these: for μL em: 0.1M DEA, pH, 25° C., dioxetane concentration 3.7 × 10^−7M to 6 × 10^−6M; for Emission Max, nm, +BDMQ: in the presence of BDMQ; for Emission Max, nm, No Addition: no enhancement agent; for Emission Max, nm, On Nylon: on a nylon membrane. On the procedure: […] The solution was equilibrated 5 minutes in a Spex Fluorolog Fluorimeter and then scanned 5 times at 0.5 sec/nm for chemiluminescent emission. The chemiluminescence emission wavelength maximum was recorded.

`COc1cc(OP(=O)([O-])[O][NaH2-2])cc(C2(OC)OOC23C2CC4CC(C2)CC3C4)c1.[Na+]` (stereo not drawn) [Dioxetane 140-20, Disodium 5-methoxy-3-(methoxyspiro(1,2-dioxetane-3,2′-tricyclo[3.3.1.1^3,7]-decan]-4-yl)-1-phenyl Phosphate]: the “Quantum Yield” value in the data set on alkaline phosphatase [1] is on record as 1.5 × 10^−5. Moreover, in the data set with alkaline phosphatase [1] (second table), the “Quantum Yield” value was 1.5 × 10^−5. In the data set with alkaline phosphatase [2], the μL em is given as 476; the “Emission Max, nm, +BDMQ” value amounted to 466 nm; the “Emission Max, nm, No Addition” value amounted to 476 nm; the “Emission Max, nm, On Nylon” value is 461 nm. Besides, in the data set with alkaline phosphatase [2] (second table), the μL em stood at 476.
For the molecule `COC1(c2cc(Cl)cc(OP(=O)([O-])[O][NaH2-2])c2)OOC12C1CC3CC2CC(Cl)(C3)C1.[Na+]` (stereo not drawn) [Dioxetane 128-87, Disodium 3-chloro-5-(methoxyspiro(1,2-dioxetane-3,2′-(5-chloro-)tricyclo-[3.3.1.1^3,7]-decan]-4-yl)-1-phenyl Phosphate], the “Quantum Yield” value in the data set on alkaline phosphatase [1] is reported as 1.2 × 10^−4. Besides, the “Quantum Yield” value in the data set on alkaline phosphatase [1] (second table) is 1.2 × 10^−4. Besides, in the data set with alkaline phosphatase [2], the μL em was determined as 470; the “Emission Max, nm, +BDMQ” value is reported as 464 nm; the “Emission Max, nm, No Addition” value is 470 nm; the “Emission Max, nm, On Nylon” value is on record as 459 nm. Further, in the data set with alkaline phosphatase [2] (second table), the μL em is on record as 470.
As to `COC1(c2cccc(OP(=O)(O)O)c2)OOC12C1CC3CC2CC(Cl)(C3)C1` (stereo not drawn) [CSPD, reference compound], the “Quantum Yield” value with alkaline phosphatase [1] and with alkaline phosphatase [1] (second table) was 5.2 × 10^−5 in each case. For the same molecule, the μL em in the data set with alkaline phosphatase [2] and in the data set with alkaline phosphatase [2] (second table) was 475 each time.
For the molecule `COc1cc(OP(=O)([O-])[O][NaH2-2])cc(C2(OC)OOC23C2CC4CC3CC(Cl)(C4)C2)c1.[Na+]` (stereo not drawn) [Dioxetane 140-17, Disodium 5-methoxy-3-(methoxyspiro(1,2-dioxetane-3,2′-(5-chloro-)tricyclo-[3.3.1.1^3,7]-decan]-4-yl)-1-phenyl Phosphate], the “Quantum Yield” value in the data set on alkaline phosphatase [1] was 2.3 × 10^−5. Also, the “Quantum Yield” value with alkaline phosphatase [1] (second table) is reported as 2.3 × 10^−5. In the data set on alkaline phosphatase [2], the μL em is given as 475; the “Emission Max, nm, +BDMQ” value amounted to 464 nm; the “Emission Max, nm, No Addition” value is on record as 475 nm; the “Emission Max, nm, On Nylon” value stood at 463 nm. This molecule gave a μL em in the data set with alkaline phosphatase [2] (second table) of 475.
As to `COC1(c2cccc(OP(=O)(O)O)c2)OOC12C1CC3CC(C1)CC2C3` (stereo not drawn) [AMPPD, 3-(2′-spiroadamantane)4-methoxy-4-(3″-phosphoryloxy)phenyl-1,2-dioxetane, reference compound], the “Quantum Yield” value with alkaline phosphatase [1] and in the data set on alkaline phosphatase [1] (second table) was 1.5 × 10^−5 each time. Besides, the μL em in the data set on alkaline phosphatase [2] and in the data set with alkaline phosphatase [2] (second table) was 477 throughout.
As for `COC1(c2cc(Cl)cc(OP(=O)([O-])[O][NaH2-2])c2)OOC12C1CC3CC(C1)CC2C3.[Na+]` (stereo not drawn) [Dioxetane 128-70, Disodium 3-chloro-5-(methoxyspiro(1,2-dioxetane-3,2′-tricylo[3.3.1.1^3,7]-decan]-4-yl)-1-phenyl Phosphate], in the data set with alkaline phosphatase [1], the “Quantum Yield” value is on record as 1.4 × 10^−4. For the same molecule, the “Quantum Yield” value in the data set on alkaline phosphatase [1] (second table) is on record as 1.4 × 10^−4. In the data set on alkaline phosphatase [2], the μL em came to 471; the “Emission Max, nm, +BDMQ” value amounted to 463 nm; the “Emission Max, nm, No Addition” value turned out to be 471 nm; the “Emission Max, nm, On Nylon” value was 461 nm. In the data set with alkaline phosphatase [2] (second table), this molecule showed a μL em of 471.
